Results taken from patent US12559492B2, “BRAF degraders” (C4 Therapeutics, Inc., priority 2020, dated 2026).

Biological target: BRAF^V600E protein (Homo sapiens, UniProt P15056, V600E)
Experiment: HiBiT cellular BRAF V600E degradation assay
Assay type: cell-based
Settings: 24 h incubation; for DC50: A375.10 cells (HiBiT tag knocked in at N-terminal of BRAF V600E), concentration at which 50% of total cellular BRAF V600E is degraded; for Emax / HiBit 24 h Emax: A375.10 cells, Emax = amount of residual protein remaining in the cell after compound treatment; for Emax: read-out: HiBit 24 h Emax

Sequence of BRAF^V600E protein (P15056 whole entry V600E): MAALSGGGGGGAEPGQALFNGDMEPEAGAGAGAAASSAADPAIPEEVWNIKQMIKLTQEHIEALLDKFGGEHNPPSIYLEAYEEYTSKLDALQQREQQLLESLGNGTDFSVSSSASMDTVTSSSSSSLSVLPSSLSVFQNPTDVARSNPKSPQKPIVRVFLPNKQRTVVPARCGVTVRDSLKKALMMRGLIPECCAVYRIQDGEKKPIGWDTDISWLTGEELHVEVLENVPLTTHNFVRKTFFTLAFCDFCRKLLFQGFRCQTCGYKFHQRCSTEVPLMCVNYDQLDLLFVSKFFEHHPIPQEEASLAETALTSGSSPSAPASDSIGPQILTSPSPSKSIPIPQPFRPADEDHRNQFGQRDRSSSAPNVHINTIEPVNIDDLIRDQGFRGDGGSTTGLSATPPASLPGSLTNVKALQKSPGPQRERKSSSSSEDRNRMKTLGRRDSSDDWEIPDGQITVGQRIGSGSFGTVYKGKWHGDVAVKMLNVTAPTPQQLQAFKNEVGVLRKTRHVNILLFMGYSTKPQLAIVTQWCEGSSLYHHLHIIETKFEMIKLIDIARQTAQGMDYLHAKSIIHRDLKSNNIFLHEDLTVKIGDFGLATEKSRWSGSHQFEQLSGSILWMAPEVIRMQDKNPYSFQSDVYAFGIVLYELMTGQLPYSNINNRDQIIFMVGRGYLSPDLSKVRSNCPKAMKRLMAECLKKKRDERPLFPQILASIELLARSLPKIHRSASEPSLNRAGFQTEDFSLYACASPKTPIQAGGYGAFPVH

## CCN(C)S(=O)(=O)Nc1ccc(F)c(C(=O)c2c[nH]c3ncc(-c4ccc(N5CCC(NC(=O)CN6CCC(c7ccc(NC8CCC(=O)NC8=O)cn7)CC6)CC5)cc4)cc23)c1F (stereo not shown) [Example A56, 2-[4-[5-[(2,6-dioxopiperidin-3-yl)amino]pyridin-2-yl]piperidin-1-yl]-N-[1-[4-[3-[3-[[ethyl(methyl)sulfamoyl]amino]-2,6-difluorobenzoyl]-1H-pyrrolo[2,3-b]pyridin-5-yl]phenyl]piperidin-4-yl]acetamide; formic acid]
  DC50: 20 nM
  Emax: 11%

## CCN(C)S(=O)(=O)Nc1ccc(F)c(C(=O)c2c[nH]c3ncc(-c4ccc(N5CCC(NC(=O)CN6CCC(c7ccc(NC8CCC(=O)NC8=O)cn7)CC6)CC5)nc4)cc23)c1F (stereo not shown) [Example A57, 2-[4-[5-[(2,6-dioxopiperidin-3-yl)amino]pyridin-2-yl]piperidin-1-yl]-N-[1-[5-[3-[3-[[ethyl(methyl)sulfamoyl]amino]-2,6-difluorobenzoyl]-1H-pyrrolo[2,3-b]pyridin-5-yl]pyridin-2-yl]piperidin-4-yl]acetamide;formic acid]
  DC50: 33 nM
  Emax: 13%

## CCN(C)S(=O)(=O)Nc1ccc(F)c(C(=O)c2c[nH]c3ncc(-c4cnc(N5CCC(NC(=O)CN6CCC(c7ccc(NC8CCC(=O)NC8=O)cn7)CC6)CC5)nc4)cc23)c1F (stereo not shown) [Example A58, 2-[4-[5-[(2,6-dioxopiperidin-3-yl)amino]pyridin-2-yl]piperidin-1-yl]-N-[1-[5-[3-[3-[[ethyl(methyl)sulfamoyl]amino]-2,6-difluorobenzoyl]-1H-pyrrolo[2,3-b]pyridin-5-yl]pyrimidin-2-yl]piperidin-4-yl]acetamide; formic acid]
  DC50: 43 nM
  Emax: 13%

## CCN(C)S(=O)(=O)Nc1ccc(F)c(C(=O)c2c[nH]c3ncc(-c4cnc(N5CCC(NC(=O)CN6CCC(c7ccc(OC8CCC(=O)NC8=O)cc7)CC6)CC5)nc4)cc23)c1F (stereo not shown) [Example A59, 2-[4-[4-(2,6-Dioxopiperidin-3-yl)oxyphenyl]piperidin-1-yl]-N-[1-[5-[3-[3-[[ethyl(methyl)sulfamoyl]amino]-2,6-difluorobenzoyl]-1H-pyrrolo[2,3-b]pyridin-5-yl]pyrimidin-2-yl]piperidin-4-yl]acetamide;formic acid]
  DC50: 60 nM
  Emax: 13%

## CCN(C)S(=O)(=O)Nc1ccc(F)c(C(=O)c2c[nH]c3ncc(-c4cnc(N5CCC(NC(=O)CN6CCC(c7ccc(OC8CCC(=O)NC8=O)cn7)CC6)CC5)nc4)cc23)c1F (stereo not shown) [Example A60, 2-[4-[5-(2,6-Dioxopiperidin-3-yl)oxypyridin-2-yl]piperidin-1-yl]-N-[1-[5-[3-[3-[[ethyl(methyl)sulfamoyl]amino]-2,6-difluorobenzoyl]-1H-pyrrolo[2,3-b]pyridin-5-yl]pyrimidin-2-yl]piperidin-4-yl]acetamide;formic acid]
  DC50: 275 nM
  Emax: 24%

## CCN(C)S(=O)(=O)Nc1ccc(F)c(C(=O)c2c[nH]c3ncc(-c4ccc(N5CCC(NC(=O)CN6CCC(c7ccc(OC8CCC(=O)NC8=O)cc7)CC6)CC5)nc4)cc23)c1F (stereo not shown) [Example A61, 2-[4-[4-(2,6-Dioxopiperidin-3-yl)oxyphenyl]piperidin-1-yl]-N-[1-[5-[3-[3-[[ethyl(methyl)sulfamoyl]amino]-2,6-difluorobenzoyl]-1H-pyrrolo[2,3-b]pyridin-5-yl]pyridin-2-yl]piperidin-4-yl]acetamide;formic acid]
  DC50: 40 nM
  Emax: 16%

## CCN(C)S(=O)(=O)Nc1ccc(F)c(C(=O)c2c[nH]c3ncc(-c4cnc(N5CCC(NC(=O)CN6CCC(c7ccc(NC8CCC(=O)NC8=O)cc7)CC6)CC5)nc4)cc23)c1F (stereo not shown) [Example A62, 2-[4-[4-[(2,6-Dioxopiperidin-3-yl)amino]phenyl]piperidin-1-yl]-N-[1-[5-[3-[3-[[ethyl(methyl)sulfamoyl]amino]-2,6-difluorobenzoyl]-1H-pyrrolo[2,3-b]pyridin-5-yl]pyrimidin-2-yl]piperidin-4-yl]acetamide;formic acid]
  DC50: 8 nM
  Emax: 18%

## CCN(C)S(=O)(=O)Nc1ccc(F)c(C(=O)c2c[nH]c3ncc(-c4ccc(N5CCC(NC(=O)CN6CCC(c7ccc(OC8CCC(=O)NC8=O)cn7)CC6)CC5)cc4)cc23)c1F (stereo not shown) [Example A64, 2-[4-[5-(2,6-Dioxopiperidin-3-yl)oxypyridin-2-yl]piperidin-1-yl]-N-[1-[4-[3-[3-[[ethyl(methyl)sulfamoyl]amino]-2,6-difluorobenzoyl]-1H-pyrrolo[2,3-b]pyridin-5-yl]phenyl]piperidin-4-yl]acetamide;formic acid]
  DC50: 67 nM
  Emax: 13%

## CCN(C)S(=O)(=O)Nc1ccc(F)c(C(=O)c2c[nH]c3ncc(-c4ccc(N5CCC(NC(=O)CN6CCC(c7ccc(OC8CCC(=O)NC8=O)cn7)CC6)CC5)nc4)cc23)c1F (stereo not shown) [Example A65, 2-[4-[5-(2,6-Dioxopiperidin-3-yl)oxypyridin-2-yl]piperidin-1-yl]-N-[1-[5-[3-[3-[[ethyl(methyl)sulfamoyl]amino]-2,6-difluorobenzoyl]-1H-pyrrolo[2,3-b]pyridin-5-yl]pyridin-2-yl]piperidin-4-yl]acetamide;formic acid]
  DC50: 151 nM
  Emax: 18%

## CCN(C)S(=O)(=O)Nc1ccc(F)c(C(=O)c2c[nH]c3ncc(-c4ccc(N5CCC(NC(=O)CN6CCC(c7ccc(NC8CCC(=O)NC8=O)cc7)CC6)CC5)nc4)cc23)c1F (stereo not shown) [Example A66, 2-[4-[4-[(2,6-Dioxopiperidin-3-yl)amino]phenyl]piperidin-1-yl]-N-[1-[5-[3-[3-[[ethyl(methyl)sulfamoyl]amino]-2,6-difluorobenzoyl]-1H-pyrrolo[2,3-b]pyridin-5-yl]pyridin-2-yl]piperidin-4-yl]acetamide; formic acid]
  DC50: 17 nM
  Emax: 13%

## CCN(C)S(=O)(=O)Nc1ccc(F)c(C(=O)c2c[nH]c3ncc(-c4ccc(N5CCC(NC(=O)CN6CCC(c7ccc(NC8CCC(=O)NC8=O)cc7)CC6)CC5)cc4)cc23)c1F.O=CO (stereo not shown) [Example A67, 2-[4-[4-[(2,6-Dioxopiperidin-3-yl)amino]phenyl]piperidin-1-yl]-N-[1-[4-[3-[3-[[ethyl(methyl)sulfamoyl]amino]-2,6-difluorobenzoyl]-1H-pyrrolo[2,3-b]pyridin-5-yl]phenyl]piperidin-4-yl]acetamide; formic acid]
Formic acid
  DC50: 7 nM
  HiBit 24 h Emax: 11%

## CCN(C)S(=O)(=O)Nc1ccc(F)c(C(=O)c2c[nH]c3ncc(-c4cnc(N5CCN(C(=O)CN6CCN(c7ccc(OC8CCC(=O)NC8=O)cn7)CC6)CC5)nc4)cc23)c1F (stereo not shown) [Example A68, 5-[2-[4-[2-[4-[5-(2,6-Dioxopiperidin-3-yl)oxypyridin-2-yl]piperazin-1-yl]acetyl]piperazin-1-yl]pyrimidin-5-yl]-3-[3-[[ethyl(methyl)sulfamoyl]amino]-2,6-difluorobenzoyl]-1H-pyrrolo[2,3-b]pyridine]
  DC50: 50 nM
  Emax: 11%

## CCN(C)S(=O)(=O)Nc1ccc(F)c(C(=O)c2c[nH]c3ncc(-c4cnc(N5CCN(C(=O)CN6CCC(c7ccc(NC8CCC(=O)NC8=O)cn7)CC6)CC5)nc4)cc23)c1F (stereo not shown) [Example A69, 5-[2-[4-[2-[4-[5-[(2,6-Dioxopiperidin-3-yl)amino]pyridin-2-yl]piperidin-1-yl]acetyl]piperazin-1-yl]pyrimidin-5-yl]-3-[3-[[ethyl(methyl)sulfamoyl]amino]-2,6-difluorobenzoyl]-1H-pyrrolo[2,3-b]pyridine]
  DC50: 7 nM
  HiBit 24 h Emax: 12%

## CCN(C)S(=O)(=O)Nc1ccc(F)c(C(=O)c2c[nH]c3ncc(-c4cnc(N5CCN(C(=O)CN6CCC(c7ccc(N(C)C8CCC(=O)NC8=O)cc7)CC6)CC5)nc4)cc23)c1F (stereo not shown) [Example A70, 5-[2-[4-[2-[4-[4-[(2,6-Dioxopiperidin-3-yl)-methylamino]phenyl]piperidin-1-yl]acetyl]piperazin-1-yl]pyrimidin-5-yl]-3-[3-[[ethyl(methyl)sulfamoyl]amino]-2,6-difluorobenzoyl]-1H-pyrrolo[2,3-b]pyridine]
  DC50: 19 nM
  Emax: 18%

## O=C1CCC(Nc2ccc(C3CCN(CC(=O)N4CCN(c5ccc(-c6cnc7[nH]cc(C(=O)c8c(F)ccc(NS(=O)(=O)N9CCCC9)c8F)c7c6)cn5)CC4)CC3)cc2)C(=O)N1 (stereo not shown) [Example A72, N-[3-[5-[6-[4-[2-[4-[4-[(2,6-Dioxopiperidin-3-yl)amino]phenyl]piperidin-1-yl]acetyl]piperazin-1-yl]pyridin-3-yl]-1H-pyrrolo[2,3-b]pyridine-3-carbonyl]-2,4-difluorophenyl]pyrrolidine-1-sulfonamide]
  DC50: 4.47 nM
  Emax: 16.1%

## O=C1CCC(Nc2ccc(N3CCN(CC(=O)N4CCN(c5ccc(-c6cnc7[nH]cc(C(=O)c8c(F)ccc(NS(=O)(=O)N9CCCC9)c8F)c7c6)cn5)CC4)CC3)cc2)C(=O)N1 (stereo not shown) [Example A73, N-[3-[5-[6-[4-[2-[4-[4-[(2,6-Dioxopiperidin-3-yl)amino]phenyl]piperazin-1-yl]acetyl]piperazin-1-yl]pyridin-3-yl]-1H-pyrrolo[2,3-b]pyridine-3-carbonyl]-2,4-difluorophenyl]pyrrolidine-1-sulfonamide]
  DC50: 6 nM
  Emax: 19%

## O=C1CCC(Nc2ccc(N3CCN(CC(=O)N4CCN(c5ccc(-c6cnc7[nH]cc(C(=O)c8c(F)ccc(NS(=O)(=O)N9CC[C@@H](F)C9)c8F)c7c6)cc5)CC4)CC3)cc2)C(=O)N1 (stereo partly drawn) [Example A74, (3R)—N-[3-[5-[4-[4-[2-[4-[4-[(2,6-Dioxopiperidin-3-yl)amino]phenyl]piperazin-1-yl]acetyl]piperazin-1-yl]phenyl]-1H-pyrrolo[2,3-b]pyridine-3-carbonyl]-2,4-difluorophenyl]-3-fluoropyrrolidine-1-sulfonamide]
  DC50: 7 nM
  Emax: 19%
